Measured values published in the supplement of paper PMC10307832.

Columns and labels:
Test in all cases: relative viability (nuclei count vs DMSO), 5 days (fraction); higher = more cells survive
[1] = system: NCI-H2170
How it was run: (§1)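 Cells from lung cancer lines were seeded into 1536-well plates and, one day later, dosed by pin tool. Treatments were either a single drug or a fixed dose of an anchor drug with five library-drug doses (not always all listed) in √10 steps. After 5 days, nuclei were stained in a one-step fixation (final 0.05% Triton X-100, 1% formaldehyde, 1 ug/ml Hoechst) and counted on 4× images, and relative viability is the treated-to-vehicle nuclei ratio, as the median of duplicate plates.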

[2] = system: A-427
How it was run: as §1

[3] = system: EKVX
How it was run: as §1

[4] = system: PC-3 [JPC-3]
How it was run: as §1

[5] = system: ChaGo-K-1
How it was run: as §1

[6] = system: NCI-H441
How it was run: as §1

[7] = system: HCC-366
How it was run: as §1

[8] = system: EMC-BAC-2
How it was run: as §1

[9] = system: LK-2
How it was run: as §1

[10] = system: NCI-H1755
How it was run: as §1

[11] = system: COR-L 105
How it was run: as §1

[12] = system: SW 900
How it was run: as §1

[13] = system: SK-MES-1
How it was run: as §1

[14] = system: NCI-H1975
How it was run: as §1

[15] = system: NCI-H520
How it was run: as §1

[16] = system: NCI-H1734
How it was run: as §1

[17] = system: NCI-H1666
How it was run: as §1

[18] = system: NCI-H596
How it was run: as §1

[19] = system: LOU-NH91
How it was run: as §1

[20] = system: NCI-H23
How it was run: as §1

[21] = system: H3255
How it was run: as §1

Cc1sc2c(c1C)C(c1ccc(Cl)cc1)=N[C@@H](CC(=O)OC(C)(C)C)c1nnc(C)n1-2 [JQ1] + O=C(CCCCCCC(=O)Nc1ccccc1)NO [Vorinostat] (partner 1 µM)
relative viability ([1]; first compound 0.04 µM): 0.866 | relative viability ([1]; first compound 0.1265 µM): 0.609 | relative viability ([1]; first compound 0.4 µM): 0.513 | relative viability ([1]; first compound 1.265 µM): 0.472 | relative viability ([1]; first compound 4 µM): 0.243 | relative viability ([2]; first compound 0.04 µM): 0.861 | relative viability ([2]; first compound 0.1265 µM): 0.748 | relative viability ([2]; first compound 0.4 µM): 0.789 | relative viability ([2]; first compound 1.265 µM): 0.594 | relative viability ([2]; first compound 4 µM): 0.429 | relative viability ([3]; first compound 0.04 µM): 0.789 | relative viability ([3]; first compound 0.4 µM): 0.739 | relative viability ([3]; first compound 1.265 µM): 0.466 | relative viability ([3]; first compound 4 µM): 0.496 | relative viability ([4]; first compound 0.04 µM): 0.816 | relative viability ([4]; first compound 0.1265 µM): 0.716 | relative viability ([4]; first compound 0.4 µM): 0.67 | relative viability ([4]; first compound 1.265 µM): 0.537 | relative viability ([4]; first compound 4 µM): 0.377 | relative viability ([5]; first compound 0.04 µM): 0.752 | relative viability ([5]; first compound 0.1265 µM): 0.57 | relative viability ([5]; first compound 0.4 µM): 0.639 | relative viability ([5]; first compound 1.265 µM): 0.505 | relative viability ([5]; first compound 4 µM): 0.491 | relative viability ([6]; first compound 0.04 µM): 0.64 | relative viability ([6]; first compound 0.1265 µM): 0.943 | relative viability ([6]; first compound 0.4 µM): 0.886 | relative viability ([6]; first compound 1.265 µM): 0.303 | relative viability ([6]; first compound 4 µM): 0.199 | relative viability ([7]; first compound 0.04 µM): 0.409 | relative viability ([7]; first compound 0.4 µM): 0.138 | relative viability ([7]; first compound 1.265 µM): 0.0461 | relative viability ([7]; first compound 4 µM): 0.042 | relative viability ([8]; first compound 0.04 µM): 0.423 | relative viability ([8]; first compound 0.4 µM): 0.367 | relative viability ([8]; first compound 1.265 µM): 0.281 | relative viability ([8]; first compound 4 µM): 0.237 | relative viability ([9]; first compound 0.04 µM): 0.301 | relative viability ([9]; first compound 0.1265 µM): 0.233 | relative viability ([9]; first compound 0.4 µM): 0.281 | relative viability ([9]; first compound 1.265 µM): 0.128 | relative viability ([9]; first compound 4 µM): 0.101 | relative viability ([10]; first compound 0.04 µM): 0.822 | relative viability ([10]; first compound 0.1265 µM): 0.579 | relative viability ([10]; first compound 0.4 µM): 0.693 | relative viability ([10]; first compound 1.265 µM): 0.651 | relative viability ([10]; first compound 4 µM): 0.552 | relative viability ([11]; first compound 0.04 µM): 0.743 | relative viability ([11]; first compound 0.1265 µM): 0.773 | relative viability ([11]; first compound 0.4 µM): 0.621 | relative viability ([11]; first compound 1.265 µM): 0.338 | relative viability ([11]; first compound 4 µM): 0.338 | relative viability ([12]; first compound 0.04 µM): 0.448 | relative viability ([12]; first compound 0.1265 µM): 0.611 | relative viability ([12]; first compound 0.4 µM): 0.332 | relative viability ([12]; first compound 1.265 µM): 0.174 | relative viability ([12]; first compound 4 µM): 0.157 | relative viability ([13]; first compound 0.04 µM): 1.1 | relative viability ([13]; first compound 0.1265 µM): 0.813 | relative viability ([13]; first compound 0.4 µM): 0.464 | relative viability ([13]; first compound 1.265 µM): 0.32 | relative viability ([13]; first compound 4 µM): 0.273 | relative viability ([14]; first compound 0.04 µM): 0.729 | relative viability ([14]; first compound 0.1265 µM): 0.6 | relative viability ([14]; first compound 0.4 µM): 0.64 | relative viability ([14]; first compound 1.265 µM): 0.325 | relative viability ([14]; first compound 4 µM): 0.263 | relative viability ([15]; first compound 0.04 µM): 0.658 | relative viability ([15]; first compound 0.1265 µM): 0.577 | relative viability ([15]; first compound 0.4 µM): 0.423 | relative viability ([15]; first compound 1.265 µM): 0.234 | relative viability ([15]; first compound 4 µM): 0.225 | relative viability ([16]; first compound 0.04 µM): 0.802 | relative viability ([16]; first compound 0.1265 µM): 0.665 | relative viability ([16]; first compound 0.4 µM): 0.712 | relative viability ([16]; first compound 1.265 µM): 0.334 | relative viability ([16]; first compound 4 µM): 0.358 | relative viability ([17]; first compound 0.04 µM): 0.972 | relative viability ([17]; first compound 0.1265 µM): 0.944 | relative viability ([17]; first compound 0.4 µM): 0.988 | relative viability ([17]; first compound 1.265 µM): 0.823 | relative viability ([17]; first compound 4 µM): 0.788 | relative viability ([18]; first compound 0.04 µM): 0.683 | relative viability ([18]; first compound 0.1265 µM): 0.643 | relative viability ([18]; first compound 0.4 µM): 0.436 | relative viability ([18]; first compound 1.265 µM): 0.292 | relative viability ([18]; first compound 4 µM): 0.311 | relative viability ([19]; first compound 0.04 µM): 0.912 | relative viability ([19]; first compound 0.1265 µM): 0.718 | relative viability ([19]; first compound 0.4 µM): 0.442 | relative viability ([19]; first compound 1.265 µM): 0.388 | relative viability ([19]; first compound 4 µM): 0.402 | relative viability ([20]; first compound 0.04 µM): 0.547 | relative viability ([20]; first compound 0.1265 µM): 0.586 | relative viability ([20]; first compound 0.4 µM): 0.44 | relative viability ([20]; first compound 1.265 µM): 0.168 | relative viability ([20]; first compound 4 µM): 0.141 | relative viability ([21]; first compound 0.04 µM): 0.896 | relative viability ([21]; first compound 0.4 µM): 1.01 | relative viability ([21]; first compound 1.265 µM): 0.526 | relative viability ([21]; first compound 4 µM): 0.428
